Laboratory results from patent publication US12692396B2, “Fluorescent labeling agent and fluorescent dye” (artience Co., Ltd., priority 2020, dated 2026).

Tests used:
phospholipids = assay: Evaluation of property of fluorescent dye being accumulated in phospholipids (labeling agent intensity / dye solution intensity); assay type: cell-based, Human; conditions: A431 cells, one hour; relative value, comparative compound 12 regarded as one; fluorescent wavelength range as in Table 22 (780-800 nm, 630-650 nm in last line)
Procedure: <Evaluation of Property of Fluorescent Dye being Accumulated in Phospholipids>
The property of each dye being accumulated in phospholipids was calculated from the fluorescence intensity integral value obtained from the fluorescent spectrum of the dye solution and the fluorescence intensity obtained from the fluorescence intensity of the fluorescent labeling agent using an expression (1). The relative value of the property of each fluorescent labeling agent being accumulated in phospholipids when the property of the comparative compound 12 being accumulated in phospholipids was regarded as one was calculated and evaluated based on the following standards. In a case where the relative value is evaluated as 3 or more, it can be said that each fluorescent dye has a favorable property of being accumulated in phospholipids.
• 4: The property of being accumulated in phospholipids is 4 or more. • 3: The property of being accumulated in phospholipids is 2 or more and less than 4. • 2: The property of being accumulated in phospholipids is 1 or more and less than 2. • 1: The property of being accumulated in phospholipids is less than 1. Property of being accumulated in phospholipids=fluorescence intensity of fluorescent labeling agent/fluorescence intensity of dye solution (1)

[1] = system: Human epithelium cancer cells A431; assay: Evaluation of visibility of cell (fluorescent microscope); assay type: cell-based; set-up: key: P (Pass): Clear; F (Failure): Unclear
Procedure: <Evaluation of Visibility of Cell>
(§1) Human epithelium cancer cells A431 were seeded in a 96-well plate (1×10^4 cells/well). The A431 were cultured for 24 hours using an RPMI 1640 medium to which 10% fetal bovine serum (FBS) and 1% penicillin-streptomycin had been added in an incubator (37° C., 5% CO2-containing Air, humidified environment).
After cultivation, the medium was removed, and the fluorescent labeling agents prepared in Examples 127 to 189 and Comparative Examples 25 to 37 were added thereto and left to stand in the incubator for one hour. Next, these were washed in the RPMI 1640 medium. The dark field images and fluorescent images of the cells were observed using a fluorescent microscope (manufactured by Keyence Corporation, BZ-X800) equipped with an excitation filter for an appropriate wavelength and a fluorescent filter and evaluated based on the following standards.
• P (Pass): Clear • F (Failure): Unclear
The evaluation results of the visibility of the cells labeled with the fluorescent labeling agents 1, 15, 19, 24, 25, 68, and 75 are sequentially shown in FIGS. 2 to 8 (magnification: 10 times, optical uptake time: 1 second).
The evaluation results of the visibility of the cells labeled with the fluorescent labeling agents 42 and 53 are sequentially shown in FIGS. 9 to 10 (magnification: 40 times, optical uptake time: 1 second).
From what has been described above, it has been clarified that the fluorescent labeling agent according to the embodiment of the present invention has excellent characteristics as a fluorescent labeling agent.

[2] = system: Human epithelium cancer cells A431; assay: Evaluation of cell toxicity of fluorescent labeling agent (cell counting kit-8, absorbance at 450 nm); assay type: cell-based
Procedure: <Evaluation of Cell Toxicity of Fluorescent Labeling Agent>
as §1, with “Next, the” for “The”, “environment). As the RPMI 1640 medium, an RPMI-164-Medium manufactured by Sigma-Aldrich Inc. was used.” for “environment).”
After cultivation, the medium was removed, the fluorescent labeling agents prepared in Examples 83 to 123 and Comparative Examples 25 to 37 and an RPMI 1640 medium containing 1% dimethyl sulfoxide (DMSO medium solution) were added thereto. These were left to stand in the incubator for one hour and then washed in the RPMI 1640 medium. 10 μL of a cell counting kit-8 (manufactured by Dojindo Laboratories.) was added to each well and left to stand in the incubator (37° C., 5% CO2-containing Air, humidified environment) for one hour. Next, the absorbance at 450 nm was measured using a plate reader (SPARK, manufactured by Tecan Trading AG).
The relative value of the absorbance of each fluorescent labeling agent when the absorbance of the well to which the DMSO medium solution had been added was regarded as one was calculated and evaluated based on the following standards. […] At the time of calculating the relative value of the absorbance of the fluorescent labeling agent, a value obtained by subtracting the absorbance before the addition of the cell counting kit-8 (manufactured by Dojindo Laboratories.) from the measured absorbance was used.
• P (Pass): 0.8 or more • F (Failure): Less than 0.8 <Evaluation of Fluorescence Intensity of Fluorescent Labeling Agent>

[3] = A431 cells, labeling agent left one hour
[4] = labeling agent left one hour, absorbance relative to DMSO medium solution regarded as one
[5] = A431 cells labeled for one hour, Clear/Unclear
[6] = cell counting kit-8, absorbance at 450 nm, pass/fail grade

Structure (SMILES): C[Si](C)(CCCN)[O][Al]1[n]2c3c4cc(-c5ccccc5)ccc4c2N=C2N=C(N=c4c5cc(-c6ccccc6)ccc5c([n]41)=NC1=NC(=N3)c3ccc(-c4ccccc4)cc31)c1ccc(-c3ccccc3)cc12 [Fluorescent dye 2]
- Property of being accumulated in phospholipids (phospholipids): 4 (4: The property of being accumulated in phospholipids is 4 or more.)
- Cell visibility [1, 3]: P
- Cell toxicity [2, 4]: P (P (Pass): 0.8 or more)

Structure (SMILES): C[Si](C)(CCCN)[O][Al]1[n]2c3c4cc(C5CCCCC5)c(C5CCCCC5)cc4c2N=C2N=C(N=c4c5cc(C6CCCCC6)c(C6CCCCC6)cc5c([n]41)=NC1=NC(=N3)c3cc(C4CCCCC4)c(C4CCCCC4)cc31)c1cc(C3CCCCC3)c(C3CCCCC3)cc12 [Fluorescent dye 3]
- Cell toxicity [2, 4]: P (P (Pass): 0.8 or more)

Structure (SMILES): C[Si](C)(CCCN)[O][Al]1[n]2c3c4cccc(Sc5ccccc5)c4c2N=C2N=C(N=c4c5cccc(Sc6ccccc6)c5c([n]41)=NC1=NC(=N3)c3c(Sc4ccccc4)cccc31)c1c(Sc3ccccc3)cccc12 [Fluorescent dye 4]
- Cell toxicity [2, 4]: P (P (Pass): 0.8 or more)

Structure (SMILES): CCOc1cccc2c1C1=NC2=Nc2c3c(OCC)cccc3c3n2[Si](O)(O[Si](C)(C)CCCN)n2c(c4cccc(OCC)c4c2=NC2=NC(=N3)c3c(OCC)cccc32)=N1 (centres unmarked) [Fluorescent dye 5]
- Cell toxicity [2, 4]: P (P (Pass): 0.8 or more)

Structure (SMILES): CCOc1cccc2c1C1=NC2=Nc2c3c(OCC)cccc3c3[n]2[Al]([O]S(=O)(=O)c2ccc(CCN)cc2)[n]2c(c4cccc(OCC)c4c2=NC2=NC(=N3)c3c(OCC)cccc32)=N1 [Fluorescent dye 6]
- Cell toxicity [2, 4]: P (P (Pass): 0.8 or more)

Structure (SMILES): NCCc1ccc(S(=O)(=O)[O][Al]2[n]3c4c5cc(C(F)(F)F)ccc5c3N=C3N=C(N=c5c6cc(C(F)(F)F)ccc6c([n]52)=NC2=NC(=N4)c4ccc(C(F)(F)F)cc42)c2ccc(C(F)(F)F)cc23)cc1 [Fluorescent dye 7]
- Cell toxicity [2, 4]: P (P (Pass): 0.8 or more)

Structure (SMILES): CCCCCCCCCCCCCCCCCCc1ccc2c(c1)C1=NC2=Nc2c3cc(CCCCCCCCCCCCCCCCCC)ccc3c3[n]2[Al]([O]S(=O)(=O)c2ccc(CCN)cc2)[n]2c(c4ccc(CCCCCCCCCCCCCCCCCC)cc4c2=NC2=NC(=N3)c3cc(CCCCCCCCCCCCCCCCCC)ccc32)=N1 [Fluorescent dye 8]
- Cell toxicity [2, 4]: P (P (Pass): 0.8 or more)

Structure (SMILES): CC(C)(C)c1ccc2c(c1)C1=NC2=Nc2c3cc(C(C)(C)C)ccc3c3[n]2[Al]([O]S(=O)(=O)c2ccc(CCN)cc2)[n]2c(c4ccc(C(C)(C)C)cc4c2=NC2=NC(=N3)c3cc(C(C)(C)C)ccc32)=N1 [Fluorescent dye 9]
- Cell toxicity [2, 4]: P (P (Pass): 0.8 or more)

Structure (SMILES): CCOc1cccc2c1C1=NC2=Nc2c3c(OCC)cccc3c3[n]2[Al]([O]C(=O)CCCN)[n]2c(c4cccc(OCC)c4c2=NC2=NC(=N3)c3c(OCC)cccc32)=N1 [Fluorescent dye 10]
- Cell toxicity [2, 4]: P (P (Pass): 0.8 or more)

Structure (SMILES): CCOc1cccc2c1C1=NC2=Nc2c3c(OCC)cccc3c3[n]2[Al]([O]C(=O)c2ccc(C(=O)O)cc2)[n]2c(c4cccc(OCC)c4c2=NC2=NC(=N3)c3c(OCC)cccc32)=N1 [Fluorescent dye 11]
- Cell toxicity [2, 4]: P (P (Pass): 0.8 or more)

Structure (SMILES): CC(C)C(Oc1cccc2c1C1=NC2=Nc2c3c(OC(C(C)C)C(C)C)cccc3c3[n]2[Al]([O]S(=O)(=O)CCCOCCC(=O)O)[n]2c(c4cccc(OC(C(C)C)C(C)C)c4c2=NC2=NC(=N3)c3c(OC(C(C)C)C(C)C)cccc32)=N1)C(C)C [Fluorescent dye 12]
- Cell toxicity [2, 4]: P (P (Pass): 0.8 or more)

Structure (SMILES): CCOc1cccc2c1C1=NC2=Nc2c3c(OCC)cccc3c3[n]2[Al]([O]C(=O)CCN(C)C)[n]2c(c4cccc(OCC)c4c2=NC2=NC(=N3)c3c(OCC)cccc32)=N1 [Fluorescent dye 14]
- Property of being accumulated in phospholipids (phospholipids): 4 (4: The property of being accumulated in phospholipids is 4 or more.)
- Cell visibility [1, 3]: P
- Cell toxicity [2, 4]: P (P (Pass): 0.8 or more)

Structure (SMILES): CCOc1cccc2c1C1=NC2=Nc2c3c(OCC)cccc3c3n2[Si](O)(OP(=O)(CCC(=O)O)c2ccccc2)n2c(c4cccc(OCC)c4c2=NC2=NC(=N3)c3c(OCC)cccc32)=N1 (centres unmarked) [Fluorescent dye 16]
- Property of being accumulated in phospholipids (phospholipids): 4 (4: The property of being accumulated in phospholipids is 4 or more.)
- Cell visibility [1, 3]: P
- Cell toxicity [2, 4]: P (P (Pass): 0.8 or more)

Structure (SMILES): CCOc1cccc2c1C1=NC2=Nc2c3c(OCC)cccc3c3[n]2[Al]([O]P(=O)(O)CCC(=O)O)[n]2c(c4cccc(OCC)c4c2=NC2=NC(=N3)c3c(OCC)cccc32)=N1 [Fluorescent dye 17]
- Property of being accumulated in phospholipids (phospholipids): 4 (4: The property of being accumulated in phospholipids is 4 or more.)
- Cell visibility [1, 3]: P
- Cell toxicity [2, 4]: P (P (Pass): 0.8 or more)

Structure (SMILES): CCOc1cccc2c1C1=Nc3c4cccc(OCC)c4c4[n]3[Mg][n]3c(c5cccc(OCC)c5c3=NC2=N1)=NC1=NC(=N4)c2ccc(OS(=O)(=O)c3ccc(CCCN)cc3)cc21 [Fluorescent dye 36]
- Cell visibility [1, 5]: P
- Cell toxicity [2, 6]: P (P (Pass): 0.8 or more)

Structure (SMILES): CCOc1cccc2c1C1=Nc3c4cccc(OCC)c4c4[n]3[Zn][n]3c(c5cccc(OCC)c5c3=NC2=N1)=NC1=NC(=N4)c2ccc(OS(=O)(=O)c3ccc(CCCN)cc3)cc21 [Fluorescent dye 37]
- Cell visibility [1, 5]: P
- Cell toxicity [2, 6]: P (P (Pass): 0.8 or more)

Structure (SMILES): O=C(O)CCCN1C(=O)C2=C(c3ccccc3)NC(=O)C2=C1c1ccccc1 [Fluorescent dye 38]
- Cell visibility [1, 5]: P
- Cell toxicity [2, 6]: P (P (Pass): 0.8 or more)

Structure (SMILES): CN(C)CCCNC(=O)c1ccc(C(=O)O)c(-c2c3ccc(=O)cc-3oc3cc(O)ccc23)c1 [Fluorescent dye 39]
- Cell visibility [1, 5]: P
- Cell toxicity [2, 6]: P (P (Pass): 0.8 or more)

Structure (SMILES): CCN(CC)c1ccc2c(-c3ccccc3C(=O)NCCCN(C)C)c3ccc(=[N+](CC)CC)cc-3oc2c1.[Cl-] [Fluorescent dye 40]
- Cell visibility [1, 5]: P
- Cell toxicity [2, 6]: P (P (Pass): 0.8 or more)

Structure (SMILES): CC1=CC(C)=[N+]2C1Cc1ccc(CCC(=O)NCCCN(C)C)n1[B-]2(F)F (centres unmarked) [Fluorescent dye 41]
- Cell visibility [1, 5]: P
- Cell toxicity [2, 6]: P (P (Pass): 0.8 or more)

Structure (SMILES): CCOc1cccc2c1C1=Nc3c4cccc(OCC)c4c4[n]3[Al-2]35([O][PH](=O)CCCO)[n]6c(c7cccc(OCC)c7c6=NC2=[N+]13)=NC1=[N+]5C(=N4)c2cccc(OCC)c21 (centres unmarked) [Fluorescent dye 54]
- Cell visibility [1, 5]: P
- Cell toxicity [2, 6]: P (P (Pass): 0.8 or more)

Structure (SMILES): CCOc1cccc2c1C1=Nc3c4cccc(OCC)c4c4[n]3[Al-2]35([O]S(=O)(=O)c6ccc(O)cc6)[n]6c(c7cccc(OCC)c7c6=NC2=[N+]13)=NC1=[N+]5C(=N4)c2cccc(OCC)c21 [Fluorescent dye 55]
- Cell visibility [1, 5]: P
- Cell toxicity [2, 6]: P (P (Pass): 0.8 or more)

Structure (SMILES): O=C1NC(c2ccccc2)=C2C(=O)N(CCCP(=O)(O)O)C(c3ccccc3)=C12 [Fluorescent dye 60]
- Cell visibility [1, 5]: P
- Cell toxicity [2, 6]: P (P (Pass): 0.8 or more)

Structure (SMILES): CN1/C(=C/C=C/C=C/C2=[N+](CCCCCC(=O)NCCCO)c3ccccc3C2(C)C)C(C)(C)c2ccccc21 [Fluorescent dye 62]
- Cell visibility [1, 5]: P
- Cell toxicity [2, 6]: P (P (Pass): 0.8 or more)

Structure (SMILES): CC1=CC(C)=[N+]2C1=Cc1ccc(CCC(=O)NCCCO)n1[B-]2(F)F [Fluorescent dye 63]
- Cell visibility [1, 5]: P
- Cell toxicity [2, 6]: P (P (Pass): 0.8 or more)
